We go through 33 compounds from US20260125400A1, “TYK2 DEGRADERS AND USES THEREOF” (Kymera Therapeutics, Inc., priority 2023, published 2026).

Structures are written as SMILES.

The target of this assay is T1, TYK2 (Homo sapiens, UniProt P29597).
T1 construct: Degradation of TYK2 in cells was quantitatively measured using Meso Scale Discovery (MSD) technology; endogenous in cells; host or cells: OCI-LY10
Briefly: TYK2 MSD degradation in OCI-LY10 cells. The note with it: OCI-LY10 cells, 4 to 24 hours incubation; for DC50: read-out: TYK2 MSD OCI-LY10 Rel-DC50. It counts as cell-based. The procedure, abridged:
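OCI-LY10 cells were treated with 9-dose 1:3 series (top 1 to 10 μM final) for 4 to 24 hours at 37° C. Lysate TYK2 quantified by MSD sandwich immunoassay; DC50 and Dmax from four-parameter inhibitor vs. response fit.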

T1 sequence (P29597 whole entry): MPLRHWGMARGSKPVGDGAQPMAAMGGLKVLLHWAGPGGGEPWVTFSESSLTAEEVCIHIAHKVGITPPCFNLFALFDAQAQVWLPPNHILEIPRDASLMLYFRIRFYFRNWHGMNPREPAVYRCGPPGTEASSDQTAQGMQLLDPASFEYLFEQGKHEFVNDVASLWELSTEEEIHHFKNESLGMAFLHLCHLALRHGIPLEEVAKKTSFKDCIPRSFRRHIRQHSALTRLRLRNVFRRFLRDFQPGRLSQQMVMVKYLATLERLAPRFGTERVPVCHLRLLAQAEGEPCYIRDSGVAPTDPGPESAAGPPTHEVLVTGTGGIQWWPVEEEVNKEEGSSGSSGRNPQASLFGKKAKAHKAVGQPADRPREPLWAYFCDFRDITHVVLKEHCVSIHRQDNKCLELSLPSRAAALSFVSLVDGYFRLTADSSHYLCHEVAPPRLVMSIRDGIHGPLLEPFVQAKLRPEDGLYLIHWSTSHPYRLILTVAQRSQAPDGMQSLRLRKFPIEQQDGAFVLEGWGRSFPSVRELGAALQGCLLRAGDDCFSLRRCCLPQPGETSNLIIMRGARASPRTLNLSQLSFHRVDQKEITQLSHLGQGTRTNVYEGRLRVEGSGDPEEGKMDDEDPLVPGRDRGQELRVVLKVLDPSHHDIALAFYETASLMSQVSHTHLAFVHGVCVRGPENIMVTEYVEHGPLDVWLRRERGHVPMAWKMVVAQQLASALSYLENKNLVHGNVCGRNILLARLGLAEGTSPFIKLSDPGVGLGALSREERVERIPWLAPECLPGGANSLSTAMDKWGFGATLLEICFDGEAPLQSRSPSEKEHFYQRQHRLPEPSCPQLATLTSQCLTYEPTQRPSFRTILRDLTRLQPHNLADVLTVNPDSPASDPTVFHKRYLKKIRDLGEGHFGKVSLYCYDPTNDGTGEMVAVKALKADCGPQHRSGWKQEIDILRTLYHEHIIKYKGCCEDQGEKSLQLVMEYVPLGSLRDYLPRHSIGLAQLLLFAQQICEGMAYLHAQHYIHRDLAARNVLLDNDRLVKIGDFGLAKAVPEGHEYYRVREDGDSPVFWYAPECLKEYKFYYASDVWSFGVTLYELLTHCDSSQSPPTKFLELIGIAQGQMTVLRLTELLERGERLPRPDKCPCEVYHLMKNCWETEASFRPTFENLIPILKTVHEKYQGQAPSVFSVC

As usually defined, the DC50 is the concentration giving 50% degradation. On to `CNc1cc(N2CCc3c(-c4ccc(CN5CCC6(CCN(C(=O)c7cc(F)c(C)c(N8CCC(=O)NC8=O)c7)CC6)C(F)(F)C5)cn4)cccc32)nn2c(C(=O)N[C@@H]3C[C@@H]3F)cnc12` [I-657], for which the “TYK2 MSD OCI-LY10 Dmax %” value is given as “A (A (>90%))” and the 50% degradation concentration (DC50) was below 1 nM.

Turning to `CNc1cc(N2CCc3c(CC4CCN(C5CCC6(CCN(C(=O)c7ccc(Cl)c(N8CCC(=O)NC8=O)c7)CC6)OC5)CC4)cccc32)nn2c(C(=O)N[C@@H]3C[C@@H]3F)cnc12` (stereo partly drawn) [I-685], the “TYK2 MSD OCI-LY10 Dmax %” value is on record as “C (C (75 to 50%))” and the DC50 is below 10 nM.

Take `CNc1cc(N2CCc3c(CC4CCN(C5CCC6(CC5)CCN(C(=O)c5ccc(Cl)c(N7CCC(=O)NC7=O)c5)CC6)CC4(F)F)cccc32)nn2c(C(=O)N[C@@H]3C[C@@H]3F)cnc12` (stereo partly drawn) [I-686]: the “TYK2 MSD OCI-LY10 Dmax %” value was “B (B (90 to >75%))” and the DC50 was below 10 nM.

As for `CNc1cc(N2CCc3c(CCN4CCC(N5CCC6(CCN(C(=O)c7ccc(Cl)c(N8CCC(=O)NC8=O)c7)CC6)CC5)C(F)(F)C4)cccc32)nn2c(C(=O)NC3CC3F)cnc12` (stereo not drawn) [I-687], the “TYK2 MSD OCI-LY10 Dmax %” value was “B (B (90 to >75%))” and the DC50 was below 1 nM.

As to `CNc1cc(N2CCc3c(CC4CN(C5CCN(C6CCN(C(=O)c7ccc(Cl)c(N8CCC(=O)NC8=O)c7)CC6)CC5(F)F)C4)cccc32)nn2c(C(=O)N[C@@H]3C[C@@H]3F)cnc12` (stereo partly drawn) [I-698], the “TYK2 MSD OCI-LY10 Dmax %” value is reported as “B (B (90 to >75%))” and the DC50 is below 1 nM.

As to `CNc1cc(N2CCc3c(C#CCN4CCC(N5CCC6(CCN(C(=O)c7ccc(Cl)c(N8CCC(=O)NC8=O)c7)CC6)CC5)C(F)(F)C4)cccc32)nn2c(C(=O)N[C@@H]3C[C@@H]3F)cnc12` (stereo partly drawn) [I-700], the “TYK2 MSD OCI-LY10 Dmax %” value is given as “B (B (90 to >75%))” and the 50% degradation concentration (DC50) is below 1 nM.

Turning to `CNc1cc(N2CCc3c(C#CCN4CCC(N5CC6(CCN(C(=O)c7ccc(Cl)c(N8CCC(=O)NC8=O)c7)CC6)C5)C(F)(F)C4)cccc32)nn2c(C(=O)N[C@@H]3C[C@@H]3F)cnc12` (stereo partly drawn) [I-701], the “TYK2 MSD OCI-LY10 Dmax %” value is “A (A (>90%))” and the DC50 was below 1 nM.

As to `CNc1cc(N2CCc3c(C#CCN4CCC(N5CCC6(CC5)CN(C(=O)c5ccc(Cl)c(N7CCC(=O)NC7=O)c5)C6)C(F)(F)C4)cccc32)nn2c(C(=O)N[C@@H]3C[C@@H]3F)cnc12` (stereo partly drawn) [I-702], the “TYK2 MSD OCI-LY10 Dmax %” value is on record as “B (B (90 to >75%))” and the DC50 is below 1 nM.

On to `CNc1cc(N2CCc3c(CN4CCC(N5CCC(N6CCN(C(=O)c7ccc(Cl)c(N8CCC(=O)NC8=O)c7)CC6)CC5)C(F)(F)C4)cccc32)nn2c(C(=O)N[C@@H]3C[C@@H]3F)cnc12` (stereo partly drawn) [I-707], for which the “TYK2 MSD OCI-LY10 Dmax %” value is “D (D (<50%))” and the 50% degradation concentration (DC50) was below 10 nM.

As for `CNc1cc(N2CCc3c(CC4CCC(N5CCC(N6CCN(C(=O)c7ccc(Cl)c(N8CCC(=O)NC8=O)c7)CC6)C(F)(F)C5)CC4)cccc32)nn2c(C(=O)NC3CC3F)cnc12` (stereo not drawn) [I-708], the “TYK2 MSD OCI-LY10 Dmax %” value was “D (D (<50%))” and the DC50 is below 1 nM.

`CNc1cc(N2CCc3c(-c4cc(CN5CCN(c6cc7c(cc6F)c(N6CCC(=O)NC6=O)nn7C)CC5)ccn4)cccc32)nn2c(C(=O)N[C@@H]3C[C@@H]3F)cnc12` [I-709]: the “TYK2 MSD OCI-LY10 Dmax %” value was “D (D (<50%))” and the DC50 is below 10 nM.

For the compound `CNc1cc(N2CCc3c(CN4CCC(N5CC(CN6CCN(C(=O)c7ccc(Cl)c(N8CCC(=O)NC8=O)c7)CC6)C5)C(F)(F)C4)cccc32)nn2c(C(=O)N[C@@H]3C[C@@H]3F)cnc12` (stereo partly drawn) [I-710], the “TYK2 MSD OCI-LY10 Dmax %” value is given as “B (B (90 to >75%))” and the DC50 was below 10 nM.

Turning to `CNc1cc(N2CCc3c(CN4CCC(N5CCC6(CCN(C(=O)c7cc(Cl)c(C)c(N8CCC(=O)NC8=O)c7)CC6)CC5)C(F)(F)C4)cccc32)nn2c(C(=O)N[C@@H]3C[C@@H]3F)cnc12` (stereo partly drawn) [I-711], the “TYK2 MSD OCI-LY10 Dmax %” value is given as “B (B (90 to >75%))” and the DC50 is below 10 nM.

`CNc1cc(N2CCc3c(CN4CCC(N5CCC6(CCN(C(=O)c7cc(F)c(Cl)c(N8CCC(=O)NC8=O)c7)CC6)CC5)C(F)(F)C4)cccc32)nn2c(C(=O)N[C@@H]3C[C@@H]3F)cnc12` (stereo partly drawn) [I-712]: the “TYK2 MSD OCI-LY10 Dmax %” value is on record as “B (B (90 to >75%))” and the 50% degradation concentration (DC50) was below 1 nM.

As to `CNc1cc(N2CCc3c(CN4CCC(N5CCC6(CCN(C(=O)c7cc(C)c(Cl)c(N8CCC(=O)NC8=O)c7)CC6)CC5)C(F)(F)C4)cccc32)nn2c(C(=O)N[C@@H]3C[C@@H]3F)cnc12` (stereo partly drawn) [I-713], the “TYK2 MSD OCI-LY10 Dmax %” value is reported as “B (B (90 to >75%))” and the DC50 is below 10 nM.

Take `CNc1cc(N2CCc3c(CN4CC[C@@H](N5CCC6(CCN(C(=O)c7ccc(Cl)c(N8CCC(=O)NC8=O)c7)CC6)CC5)C(F)(F)C4)cccc32)nn2c(C(=O)N[C@@H]3C[C@@H]3F)cnc12` [I-714]: the “TYK2 MSD OCI-LY10 Dmax %” value is on record as “B (B (90 to >75%))” and the DC50 is below 1 nM.

As to `CNc1cc(N2CCc3c(CN4CC[C@H](N5CCC6(CCN(C(=O)c7ccc(Cl)c(N8CCC(=O)NC8=O)c7)CC6)CC5)C(F)(F)C4)cccc32)nn2c(C(=O)N[C@@H]3C[C@@H]3F)cnc12` [I-715], the “TYK2 MSD OCI-LY10 Dmax %” value is on record as “B (B (90 to >75%))” and the DC50 was below 1 nM.

As for `CNc1cc(N2CCc3c(CN4CCC(N5CCC(CN6CCN(C(=O)c7ccc(Cl)c(N8CCC(=O)NC8=O)c7)CC6)CC5)C(F)(F)C4)cccc32)nn2c(C(=O)N[C@@H]3C[C@@H]3F)cnc12` (stereo partly drawn) [I-716], the “TYK2 MSD OCI-LY10 Dmax %” value is on record as “B (B (90 to >75%))” and the DC50 is below 1 nM.

For `CNc1cc(N2CCc3c(CN4CCC(CCN5CCN(C(=O)c6ccc(Cl)c(N7CCC(=O)NC7=O)c6)CC5)CC4)cccc32)nn2c(C(=O)N[C@@H]3C[C@@H]3F)cnc12` [I-717], the “TYK2 MSD OCI-LY10 Dmax %” value is given as “C (C (75 to 50%))” and the DC50 is below 10 nM.

Take `CNc1cc(N2CCc3c(-c4cc(CN5CCN(c6ccn7c(N8CCC(=O)NC8=O)cnc7c6)CC5)ccn4)cccc32)nn2c(C(=O)N[C@@H]3C[C@@H]3F)cnc12` [I-719]: the “TYK2 MSD OCI-LY10 Dmax %” value was “C (C (75 to 50%))” and the 50% degradation concentration (DC50) is below 10 nM.

In the case of `CNc1cc(N2CCc3c(-c4cc(CN5CCN(c6noc7cc(N8CCC(=O)NC8=O)ccc67)CC5)ccn4)cccc32)nn2c(C(=O)N[C@@H]3C[C@@H]3F)cnc12` [I-723], the “TYK2 MSD OCI-LY10 Dmax %” value is listed as “D (D (<50%))” and the DC50 is above 100 nM.

For `CNc1cc(N2CCc3c2ccc(F)c3-c2ccc(CN3CCC4(CCN(C(=O)c5cc(C)c(Cl)c(N6CCC(=O)NC6=O)c5)CC4)C(F)(F)C3)cn2)nn2c(C(=O)N[C@@H]3C[C@@H]3F)cnc12` [I-742], the “TYK2 MSD OCI-LY10 Dmax %” value was “C (C (75 to 50%))” and the DC50 was 10 to 100 nM.

In the case of `CNc1cc(N2CCc3c(CCN4CCC(N5CCN(C(=O)c6ccc(Cl)c(N7CCC(=O)NC7=O)c6)CC5)C(F)(F)C4)cccc32)nn2c(C(=O)N[C@@H]3C[C@@H]3F)cnc12` (stereo partly drawn) [I-743], the “TYK2 MSD OCI-LY10 Dmax %” value is given as “B (B (90 to >75%))” and the DC50 is below 10 nM.

Regarding `CNc1cc(N2CCc3c(-c4ccc(CN5CCC6(CCN(C(=O)c7cc(F)c(Cl)c(N8CCC(=O)NC8=O)c7)CC6)C(F)(F)C5)cn4)cc(F)cc32)nn2c(C(=O)N[C@@H]3CC[C@H]3OC)cnc12` [I-744], the “TYK2 MSD OCI-LY10 Dmax %” value was “B (B (90 to >75%))” and the 50% degradation concentration (DC50) was below 10 nM.

With `CNc1cc(-c2cn(C3CN(C4CCN(C(=O)c5ccc(Cl)c(N6CCC(=O)NC6=O)c5)CC4)C3)c3ccccc23)nn2c(C(=O)N[C@@H]3C[C@@H]3F)cnc12` [I-745], the “TYK2 MSD OCI-LY10 Dmax %” value is given as “D (D (<50%))” and the DC50 was above 100 nM.

Turning to `CNc1cc(N2CCc3c(-c4ncc(CN5CCC6(CCN(C(=O)c7cc(C)c(Cl)c(N8CCC(=O)NC8=O)c7)CC6)C(F)(F)C5)cc4Cl)cccc32)nn2c(C(=O)N[C@@H]3C[C@@H]3F)cnc12` [I-746], the “TYK2 MSD OCI-LY10 Dmax %” value was “B (B (90 to >75%))” and the DC50 is below 10 nM.

As to `CNc1cc(N2CCc3c(-c4ncc(CN5CC6(CCN(C(=O)c7cc(C)c(Cl)c(N8CCC(=O)NC8=O)c7)CC6(F)F)C5)cc4Cl)cccc32)nn2c(C(=O)N[C@@H]3C[C@@H]3F)cnc12` [I-747], the “TYK2 MSD OCI-LY10 Dmax %” value is given as “B (B (90 to >75%))” and the DC50 was below 10 nM.

Turning to `CNc1cc(N2CCc3c(CN4CCC(N5CCC6(CCN(C(=O)c7cc(C)c(OC)c(N8CCC(=O)NC8=O)c7)CC6)CC5)C(F)(F)C4)cccc32)nn2c(C(=O)N[C@@H]3C[C@@H]3F)cnc12` (stereo partly drawn) [I-749], the “TYK2 MSD OCI-LY10 Dmax %” value is “B (B (90 to >75%))” and the 50% degradation concentration (DC50) is below 10 nM.

Take `CNc1cc(N2CCc3c2ccc(F)c3CN2CCC(N3CCC4(CCN(C(=O)c5ccc(Cl)c(N6CCC(=O)NC6=O)c5)CC4)CC3)C(F)(F)C2)nn2c(C(=O)N[C@@H]3C[C@@H]3F)cnc12` (stereo partly drawn) [I-750]: the “TYK2 MSD OCI-LY10 Dmax %” value is “A (A (>90%))” and the DC50 is below 1 nM.

On to `CNc1cc(N2CCc3c(CN4CCC(CN5CCC(N(C)c6ccc(Cl)c(N7CCC(=O)NC7=O)c6)CC5)C(F)(F)C4)cccc32)nn2c(C(=O)N[C@@H]3C[C@@H]3F)cnc12` (stereo partly drawn) [I-751], for which the “TYK2 MSD OCI-LY10 Dmax %” value is reported as “B (B (90 to >75%))” and the DC50 is below 10 nM.

For the compound `CNc1cc(N2CCc3c(-c4ccc(CN5CC6(CCC(N(C)c7ccc(Cl)c(N8CCC(=O)NC8=O)c7)CC6)C5)cn4)cccc32)nn2c(C(=O)N[C@@H]3CC[C@H]3OC)cnc12` [I-752], the “TYK2 MSD OCI-LY10 Dmax %” value was “B (B (90 to >75%))” and the DC50 was below 10 nM.

For `CNc1cc(N2CCc3c(CN4CCC(N5CC(CC6CCN(C(=O)c7ccc(Cl)c(N8CCC(=O)NC8=O)c7)CC6)C5)C(F)(F)C4)cccc32)nn2c(C(=O)N[C@@H]3C[C@@H]3F)cnc12` (stereo partly drawn) [I-753], the “TYK2 MSD OCI-LY10 Dmax %” value is “A (A (>90%))” and the DC50 was below 1 nM.

As to `CNc1cc(N2CCc3c(-c4ccc(CN5CC6(CCN(C(=O)c7cc(Cl)c(C)c(N8CCC(=O)NC8=O)c7)CC6(F)F)C5)cn4)cccc32)nn2c(C(=O)N[C@@H]3CC[C@H]3OC)cnc12` [I-754], the “TYK2 MSD OCI-LY10 Dmax %” value is listed as “A (A (>90%))” and the DC50 was below 1 nM.
